Laboratory results as given in a melting point compilation (Tetko et al.; mined from patent text by program, amines drawn as free bases though some values may be those of a salt).

First: Cc1cc(Oc2ccc(NC(=O)N3CCc4ccccc4CC3)cn2)ccc1Cl
Second: Cc1ccccc1C(=O)Nc1ccc(-n2nc(C(F)(F)F)cc2C2CC2)cc1
The melting point of the first is higher: 171 to 173 °C for the first, 143 to 146 °C for the second.

First: Cc1nc2c(OCc3c(Cl)ccc(NC(C)C)c3Cl)cccn2c1Br
Second: Cc1cc(-c2cc(C(F)(F)F)n3cnc(-c4cccnc4)c3n2)ccc1Cl
The melting point of the first is lower: 133 to 134 °C for the first, 210 °C for the second.

First: O=C(O)COCc1cc(Br)ccc1C(=O)O
Second: O=C(O)c1ccc(Cl)c(Sc2ccccc2[N+](=O)[O-])c1
The melting point of the first is lower: 194 to 196 °C for the first, 261 to 262 °C for the second.

Compared with `COC(=O)c1ccc(-c2c(C(=O)N(C)Cc3cc(C(F)(F)F)cc(C(F)(F)F)c3)n(C)c(=O)c3ncccc23)cc1`, `COc1ccc(-c2c(C(=O)O)c(=O)n(C)c3ccc(Cl)cc23)cc1OC` is higher in melting point: 123 to 125 °C for the first, 230 to 232 °C for the second.

Compared with `COc1ccc(C(C)(C)C)cc1NC(=O)Nc1ccc(-c2cnc3c(c2)NC(=O)CN3)c2ccccc12`, `CC(C)NC(=O)Nc1ccc2c(c1)C(c1ccccc1F)=NCC(=O)N2C` is lower in melting point: > 230 °C for the first, 185 to 188 °C for the second.

Compared with `N#Cc1nc(-c2ccc(O)cc2)cs1`, `CNC(=O)c1cnn(-c2ccccn2)c1C#N` is higher in melting point: 186 to 197 °C for the first, 200 to 202 °C for the second.

First: Clc1ccc(NCCCNCC2CCc3ccccc3O2)nn1 (configuration not stated)
Second: NC(=O)Cc1ccc2c(c1)CCc1ccccc1S2
The melting point of the first is lower: 108 °C for the first, 188 to 189 °C for the second.

First: COc1ccc2c(c1)[C@H]1CN(C)CC[C@@H]1CC2=O (relative stereo)
Second: COc1ccc(Sc2nccn2C)c([N+](=O)[O-])c1
The melting point of the first is higher: > 250 °C for the first, 117 to 120 °C for the second.

First: Cc1ccc(Cn2ccnc2)cc1
Second: ClCC1c2ccccc2Oc2ccccc21
The melting point of the first is lower: 51 to 53 °C for the first, 104 to 106 °C for the second.

First: O=S(CCCCCOc1ccc(C2=C(c3ccccc3)CCCc3cc(O)ccc32)cc1)Cc1ccccn1 (configuration not stated)
Second: Cc1oc(-c2ccccc2)nc1CCOc1ccc(C[C@H](Nc2ccccc2C(=O)c2ccccc2)C(=O)O)cc1
The melting point of the first is higher: 176 °C for the first, 85 to 90 °C for the second.

First: NCC(O)c1cc(Cl)cc(Cl)n1 (configuration not stated)
Second: O=C(NCCl)Oc1cccc(Cl)c1
The melting point of the first is higher: 117 to 118 °C for the first, 90 °C for the second.

First: CC(C)(C)NS(=O)(=O)c1ccccc1OC(F)(F)F
Second: CC(C)NC(=O)OCC1CSC2=C(O1)c1ccccc1C(=O)C2=O (configuration not stated)
The melting point of the first is lower: 137 °C for the first, 218 to 220 °C for the second.

First: OCCC1(CCO)c2ccccc2Oc2ccccc21
Second: NC(Cc1ccccc1)C(O)C(O)C(N)Cc1ccccc1 (configuration not stated)
The melting point of the first is higher: 144 to 145 °C for the first, 115 to 119 °C for the second.

First: Cc1cccc(Nc2ccccc2[N+](=O)[O-])c1C
Second: O=c1c(-c2nc[nH]n2)coc2ccccc12
The melting point of the first is lower: 118 to 120 °C for the first, 160 °C for the second.

First: COc1cc2c(c(C)c1C)C(O)CC2c1c[nH]cn1 (configuration not stated)
Second: CCOC(=O)c1cn(-c2nc[nH]n2)cn1
The melting point of the first is lower: 184 to 189 °C for the first, 220 to 222 °C for the second.

Compared with `CCn1cc(-c2cnccn2)cc(Br)c1=O`, `CCc1cc(-c2nc(C)c(-c3ccnc(Nc4ccc(N5CCOCC5)cc4)n3)s2)ccn1` is higher in melting point: 129 to 132 °C for the first, 214 to 215 °C for the second.

First: CCn1c(=O)c2c(nc(/C=C/c3ccc(OCc4ccccc4)cc3)n2C)n(CC)c1=O
Second: O=c1[nH]c2ccc(Cl)cc2c(=O)n1CCCN1CC=C(c2ccc(Cl)cc2)CC1
The melting point of the first is lower: 185 °C for the first, 197 to 198 °C for the second.

First: C=C[C@H]1CN2CC[C@H]1C[C@H]2[C@H](OC(=O)c1ccc(OCCCCCC)cc1)c1ccnc2ccccc12
Second: CCCCCCOc1cc(-c2cccc([N+](=O)[O-])c2)c(OCCCCCC)cc1-c1cccc([N+](=O)[O-])c1
The melting point of the first is lower: 70 °C for the first, 126 to 127 °C for the second.

First: Cc1ccc(-c2nc(C#N)c(-c3cccc(Cl)c3)n2-c2cc(Cl)ccc2C)cc1C
Second: CC1Nc2ccc(-c3ccc(F)c(Cl)c3)cc2C(C)(C)O1 (configuration not stated)
The melting point of the first is higher: 218 °C for the first, 173 to 175 °C for the second.

First: Cc1nc[nH]c1CSCCNC(=N)N[N+](=O)[O-]
Second: COc1ccc(OCCCCCCO)cc1
The melting point of the first is higher: 146 to 147 °C for the first, 63 to 64 °C for the second.

Compared with `CC(C)c1cc(OCCO[Si](C(C)C)(C(C)C)C(C)C)cc2c1C(=O)N(CCl)S2(=O)=O`, `CN(C)N1C(=O)c2ccccc2NS1(=O)=O` is higher in melting point: 85 to 86 °C for the first, 168 °C for the second.

First: Cc1nn(-c2ccc(O)cc2F)c(=O)n1C(F)F
Second: O=c1c2cc(F)ccc2ncn1CCN1CC=C(c2c[nH]c3ccccc23)CC1
The melting point of the first is lower: 112 to 114 °C for the first, 138 °C for the second.

First: NCc1ccc(C2CCN(c3cc4c(cc3F)c(=O)c(C(=O)O)cn4C3CC3)C2)cc1 (configuration not stated)
Second: Cc1c(O)ccc2c1OCC(c1ccc3c(c1)OCO3)C2 (configuration not stated)
The melting point of the first is higher: 268 to 272 °C for the first, 130 to 131 °C for the second.

First: COc1cnnc(O)c1
Second: CC(=O)NC[C@H]1CN(c2ccc3c(c2)CCS(=O)(=O)C3)C(=O)O1
The melting point of the first is higher: 253 to 255 °C for the first, 177 to 178 °C for the second.

First: CS(=O)(=O)CCNC(=O)c1ccc(-c2ccc3cnc(Nc4ccc(N5CCOCC5)cc4)nn23)cc1
Second: NS(=O)(=O)NC(c1ccccc1)P(=O)(Oc1ccccc1)Oc1ccccc1 (configuration not stated)
The melting point of the first is higher: 241 to 242 °C for the first, 171 to 174 °C for the second.

First: CN1CCCC1=NC(=O)Nc1cccc(Cl)c1
Second: CCOC(=O)c1oc(SC)c2c1CCc1sc(-c3ccccc3)nc1-2
The melting point of the first is lower: 135 to 136 °C for the first, 170 to 171 °C for the second.
